# Like-named read-outs stand apart in the source and are kept apart here.
# Legend:
# [1] = tested on: vancomycin-susceptible receptor (VSR); assay: Cantilever surface stress assay, antibiotic binding to surface-bound VSR; details: for mechanical response (in words): 3 μM drug against VSR; for Kd: VSR on cantilever, fit of equation (2); for maximum stress data, Mean / Mean difference of stress, VSR versus VRR: 4 chips; for maximum stress data, Mean: one-way ANOVA table S5; for mechanical force (F = kΔz): against VSR on the cantilever, Fig. 6b (10 μM); for Mean difference of stress, VSR versus VRR: independent samples t-test, table S6; for mechanical response, free end deflection: Van 1000 μM against VSR
# From the text: (§1) To probe different pathways of signal-transduction central to the efficacy of recognition mechanisms and therapeutic agents, we used cantilever force-based technology. Because of its nanometre strain sensitivity, this technology can directly measure the smallest changes in mechanical strain caused by specific antibiotic binding. The principles of force transduction and measurements are well established[18][19][20] and many studies focused on cantilever sensors have been published. Unlike conventional methods such as 1H–NMR spectroscopy, enzyme-linked immunosorbent assays (ELISA)[29] or surface plasmon resonance (SPR)[30] which measure optical signatures of chemical binding, cantilever technology has the capacity to resolve forces at the level of individual hydrogen bonds, making it uniquely suited to provide important insight into force transduction mechanisms, such as cell wall strain in response to antibiotic binding. Moreover, in contrast to direct current or low-frequency signals, which cannot probe beyond electrical double layers formed by screening salts, mechanical signaling is sensitive to ligands even when they are located at distance of ~1 nm or more from the sensor surface (Fig. 1d). Measurements were performed using cantilevers functionalized with self-assembled monolayers (SAM) of VSR, VRR or reference polyethylene glycol (PEG) (see methods & materials, Supplementary Information). The specificity of mechanical signaling was achieved by performing measurements in differential mode, where the bending response of the reference PEG-coated cantilevers, (known to reduce nonspecific drug adsorption[8][14][34]) was subtracted from VSR- and VRR-coated cantilever signals (see cantilever measurement procedure, method section).
# (§2) Thus far, we have discussed the impact of near-membrane layer on the association kinetics, mechanical force transduction, specificity of molecular recognition and microbial susceptibility. To gain mechanistic insight (Fig. 7a,b), we averaged measurements for each drug-target interaction over four separate chips and the results are summarized in Fig. 7c,d. […] The mechanical signaling response follows an s-shaped curve undergoing its steepest rise at N ~1/Ksurf before reaching a plateau when the binding sites are fully occupied (Fig. 7c,d). To calculate Ksurf, we used equation (2)[14], based on the conventional Hill adsorption model.
# (§3) Here, Ksurf is raised to the power n to ensure that it maintains the dimension of concentration as n varies. Setting n = 1 yields the Langmuir isotherm where the reactions occur independently, while n > 1 corresponds to positive co-operative polyvalent interactions and n < 1 is a measure of negative co-operativity. In Fig. 7c,d, we find that the mechanical response at VSR levels off at 50 μM concentration for all antibiotics. In contrast, for the drug-resistant VRR a concentration of more than 1000 μM of Van, Rist or CE was required to reach indistinguishable maximum signals. The outcome of the fit using three parameters (n, Ksurf and σmax) is summarized in Supplementary Fig. 2. The calculated Ksurf for Ori binding to VSR is 40 ± 10 nM, which is 25 times stronger than for Van where Ksurf is 1.0 ± 0.3 μM. The Ksurf of Ori against VRR is 70 ± 10 nM, an astonishing 11,000 times stronger than for Van where Ksurf is 800 ± 300 μM. As a further measurement control and to confirm the accuracy of surface binding affinity, we used a commercially available SPR method (Fig. 7e,f and Supplementary SPR sensor chip functionalization procedure), where the detection of ligands is at a single planar metal surface.
# (§4) The modified cantilever chip was mounted in a sealed liquid cell. The alignment of each light source onto the free end of each cantilever was confirmed by heating liquid chamber to 1 °C rise. […]
# [2] = tested on: vancomycin-resistant receptor (VRR); assay: Cantilever surface stress assay, antibiotic binding to surface-bound VRR; details: for mechanical response (in words): 3 μM drug against VRR; for compressive surface stress: 10 μM antibiotic against VRR; for Kd: fit of equation (2); for maximum stress data, Mean: 4 chips, one-way ANOVA table S4
# From the text: as §1, §2, §3, §4
# [3] = target: VSR (Ac-VSR) in solution; details: cited from earlier work
# [4] = tested on: vancomycin resistant E. faecalis (VRE); details: absence of polysorbate-80; ref. 2 (Van), ref. 5 (Rist, CE), ref. 9 (Ori), supplementary references; cited from earlier work
# [5] = tested on: vancomycin susceptible E. faecalis (VSE); details: absence of polysorbate-80; ref. 9 (Van, CE, Ori), ref. 10 (Rist), supplementary references; cited from earlier work
# [6] = tested on: methicillin-resistant Staphylococcus aureus (MRSA); details: absence of polysorbate-80; supplementary references; cited from earlier work
# [7] = target: vancomycin-susceptible receptor (VSR); assay: Surface plasmon resonance (SPR) binding to VSR; details: T100 BIAcore, fit of equation (2), read-out: Ksurf SPR
# Protocol: The SPR sensor chip functionalization procedure is summarized (see methods & materials Supplementary Information) while the measurement protocol has been described previously. In brief we used a T100 BIAcore SPR instrument in which a series of binding analyses for Van was performed. […] The corresponding SPR response signals featured an S-shaped curve, with a steep rise, then a plateau when Van concentration was increased beyond 50 μM (Fig. 7e,f). The resulting SPR differential response signals in sodium phosphate buffer solution for 0.1 μM, 0.5 μM, 2 μM, 8 μM and 128 μM were then computed using equation (2) to calculate the surface thermodynamic equilibrium dissociation constant, Ksurf of drug-target interactions.
# Surface plasmon resonance (SPR) sensor chip functionalization procedure. We applied the same cantilever functionalization procedure to the SPR sensor chip functionalization. […]
# The differential stress measurements obtained from cantilever chips are typically associated with multiple parameters including number of repeated measurements, concentration and the number of cantilevers where each array has eight individual cantilevers. The statistical analysis was found to be essential for replacing a vast quantity of data with numbers such as the averages and standard deviations. […]
# [8] = target: vancomycin-resistant receptor (VRR); details: ref. 3 (Van), ref. 5 (Rist), ref. 4 (CE), supplementary references, read-out: Ksurf SPR; cited from earlier work
# [9] = pH 7.4 sodium phosphate buffer, read-out: Ksurf Cantilever (surface equilibrium dissociation constant)
# [10] = VRR on cantilever, pH 7.4 sodium phosphate buffer, read-out: Ksurf Cantilever (surface equilibrium dissociation constant)
# [11] = VSR in solution, ref. 1 (Van, Rist), ref. 7 (CE), ref. 2 (Ori), supplementary references, read-out: Ksurf Solution
# [12] = solution, read-out: binding affinity against Ac-VSR
Structure (SMILES),mechanical response (in words) [1],"Kd [1, 9]","maximum stress data, Mean ([1]; VSR)",mechanical force (F = kΔz) [1],"Mean difference of stress, VSR versus VRR [1]",mechanical response (in words) [2],compressive surface stress [2],"Kd [2, 10]","maximum stress data, Mean ([2]; VRR)","Kd [3, 11]","Kd [3, 12]",MIC VRE [4],MIC VSE [5],MIC MRSA [6],other results
"CN[C@H](CC(C)C)C(=O)N[C@H]1C(=O)N[C@@H](CC(N)=O)C(=O)N[C@H]2C(=O)N[C@H]3C(=O)N[C@H](C(=O)N[C@H](C(=O)O)c4cc(O)cc(O)c4-c4cc3ccc4O)[C@H](O[C@H]3C[C@](C)(N)[C@@H](O)[C@H](C)O3)c3ccc(c(Cl)c3)Oc3cc2cc(c3O[C@@H]2O[C@H](CO)[C@@H](O)[C@H](O)[C@H]2O[C@H]2C[C@](C)(NCc3ccc(-c4ccc(Cl)cc4)cc3)[C@@H](O)[C@H](C)O2)Oc2ccc(cc2Cl)[C@H]1O [Ori, oritavancin]",significantly large mechanical response,40 ± 10 nM,33.8,~ 3.6 nN,13.2,significantly large mechanical response,~ 23 mNm^−1,70 ± 10 nM,20.6,3800 nM,~1000 nM,0.25 to 2 µg/mL,0.25 to 2 µg/mL,0.13 to 1.01 µg/mL,"Kd ([1]; read-out: Ksurf (cantilever)): 40 ± 10 nM; Ksurf of Ori against VSR, times stronger than for Van ([1]; ratio of cantilever Ksurf, VSR): 25 times; Kd ([2]; VRR (drug-resistant target) on cantilever, read-out: Ksurf (cantilever)): 70 nM; Ksurf of Ori against VRR, times stronger than for Van ([2]; ratio of cantilever Ksurf, VRR): 11,000 times; deleterious force sensitivity s = σeq/n ([2]; σeq = 23 mNm^−1, n ~10^11 receptor molecules per cantilever): ~ 20 fNm^−1"
"CN[C@H](CC(C)C)C(=O)N[C@H]1C(=O)N[C@@H](CC(N)=O)C(=O)N[C@H]2C(=O)N[C@H]3C(=O)N[C@H](C(=O)N[C@H](C(=O)O)c4cc(O)cc(O)c4-c4cc3ccc4O)[C@H](O)c3ccc(c(Cl)c3)Oc3cc2cc(c3O[C@@H]2O[C@H](CO)[C@@H](O)[C@H](O)[C@H]2O[C@H]2C[C@](C)(N)[C@H](O)[C@H](C)O2)Oc2ccc(cc2Cl)[C@H]1O [Van, vancomycin]",reduced overall stress transduction,1000 ± 300 nM,33.5,~ 3 nN,26.1,no effect,~ 0.4 mNm^−1,800000 nM,7.4,1000 nM,~1000 nM,512 µg/mL,0.5 to 4 µg/mL,0.5 to 4 µg/mL,"mechanical response, free end deflection ([1]; near-membrane layer thickness ~1 nm): ~ 220 nm; mechanical response, free end deflection ([1]; near-membrane layer thickness ~50 nm): ~ 150 nm; concentration required to reach indistinguishable maximum signals ([2]; VRR): more than 1000 μM; Kd [7]: 1100 ± 400 nM; Kd [8]: 526000 nM"
